Measurements published in patent US20060069132A1, “Azolecarboxamide herbicides” (priority 2004, published 2006).
Where two headings read alike, the source gives them in different places.

Key:
morningglory = test: Test A pre-/postemergence herbicide test; type: in vivo, Ipomoea spp.; settings: Ipomoea, 240 h; for pest or weed control at 500 g/ha: 500 g ai/ha; for pest or weed control at 2000 g/ha: 2000 g ai/ha
Outline: (§1)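 Greenhouse injury scoring (0–100, complete control = 100) at approximately ten days follows simultaneous pre- and postemergence application. Soil received a directed spray after seeding; seedlings of 2–10 cm at the one- to two-leaf stage were sprayed to runoff.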

velvetleaf [1] = test: Test A pre-/postemergence herbicide test; type: in vivo, Abutilon theophrasti; settings: Abutilon theophrasti, 240 h; for pest or weed control at 500 g/ha: 500 g ai/ha; for pest or weed control at 2000 g/ha: 2000 g ai/ha
Outline: as §1

cocklebur = test: Test C pre-/postemergence herbicide test; type: in vivo, Xanthium strumarium; settings: Xanthium strumarium, pre-emergence, 312 h; for pest or weed control at 62 g/ha: 62 g ai/ha, preemergence, scale 0 to 100; for pest or weed control at 62 g/ha / pest or weed control at 125 g/ha / pest or weed control at 250 g/ha: read-out: Plant response rating, Cocklebur; for pest or weed control at 125 g/ha: 125 g ai/ha, scale 0 (no effect) to 100 (complete control), visual, 12 to 14 days; for pest or weed control at 250 g/ha: 250 g ai/ha, scale 0-100; for pest or weed control at 500 g/ha: Preemergence, 500 g ai/ha, scale 0 to 100, 0 no effect, 100 complete control, read-out: Cocklebur plant response rating
Outline: (§2)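 Pre/post spray; non-phytotoxic solvent + surfactant. Post-timing 1–4 leaves, 2–18 cm. Read-out: visual % control vs untreated, day 12–14, greenhouse.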

goosegrass = test: Test C pre-/postemergence herbicide test; type: in vivo, Eleusine indica; settings: Eleusine indica, pre-emergence, 312 h, read-out: Plant response rating, Goosegrass; for pest or weed control at 62 g/ha: 62 g ai/ha, preemergence, scale 0 to 100; for pest or weed control at 125 g/ha: 125 g ai/ha, scale 0 (no effect) to 100 (complete control); for pest or weed control at 125 g/ha / pest or weed control at 500 g/ha: visual, 12 to 14 days; for pest or weed control at 250 g/ha: 250 g ai/ha, scale 0-100; for pest or weed control at 500 g/ha: 500 g ai/ha, scale 0 to 100 (0 no effect, 100 complete control)
Outline: as §2

lambsquarters = test: Test C pre-/postemergence herbicide test; type: in vivo, Chenopodium album; settings: Chenopodium album, pre-emergence, read-out: Plant response rating, Lambsquarters; for pest or weed control at 62 g/ha: 62 g ai/ha, preemergence, scale 0 to 100; for pest or weed control at 125 g/ha: 125 g ai/ha, scale 0 (no effect) to 100 (complete control); for pest or weed control at 125 g/ha / pest or weed control at 500 g/ha: visual, 12 to 14 days; for pest or weed control at 250 g/ha: 250 g ai/ha, scale 0-100; for pest or weed control at 500 g/ha: 500 g ai/ha, scale 0 to 100 (0 no effect, 100 complete control)
Outline: as §2

yellow nutsedge = test: Test C pre-/postemergence herbicide test; type: in vivo, Cyperus esculentus; settings: Cyperus, pre-emergence, read-out: Plant response rating, Nutsedge, Yellow; for pest or weed control at 62 g/ha: 62 g ai/ha, preemergence, scale 0 to 100; for pest or weed control at 125 g/ha: 125 g ai/ha, scale 0 (no effect) to 100 (complete control); for pest or weed control at 125 g/ha / pest or weed control at 500 g/ha: visual, 12 to 14 days; for pest or weed control at 250 g/ha: 250 g ai/ha, scale 0-100; for pest or weed control at 500 g/ha: 500 g ai/ha, scale 0 to 100 (0 no effect, 100 complete control)
Outline: as §2

soybean = test: Test C pre-/postemergence herbicide test; type: in vivo, Glycine max; settings: Glycine max, pre-emergence, read-out: Plant response rating, Soybean; for plant injury at 62 g/ha: 62 g ai/ha, preemergence, scale 0 to 100; for plant injury at 250 g/ha: 250 g ai/ha, scale 0-100; for plant injury at 500 g/ha: 500 g ai/ha, scale 0 to 100 (0 no effect, 100 complete control), visual, 12 to 14 days
Outline: as §2

[2] = test system: common (oilseed) sunflower; test: Test C pre-/postemergence herbicide test; type: in vivo, Helianthus annuus; settings: Helianthus annuus, pre-emergence, read-out: Plant response rating, Sunflower; for pest or weed control at 62 g/ha: 62 g ai/ha, preemergence, scale 0 to 100; for pest or weed control at 250 g/ha: 250 g ai/ha, scale 0-100; for pest or weed control at 500 g/ha: 500 g ai/ha, scale 0 to 100 (0 no effect, 100 complete control), visual, 12 to 14 days
Outline: as §2

velvetleaf [3] = test: Test C pre-/postemergence herbicide test; type: in vivo, Abutilon theophrasti; settings: Abutilon theophrasti, pre-emergence, read-out: Plant response rating, Velvetleaf; for pest or weed control at 62 g/ha: 62 g ai/ha, preemergence, scale 0 to 100; for pest or weed control at 250 g/ha: 250 g ai/ha, scale 0-100; for pest or weed control at 500 g/ha: 500 g ai/ha, scale 0 to 100 (0 no effect, 100 complete control), visual, 12 to 14 days
Outline: as §2

ducksalad = test: Test C flooded paddy test; type: in vivo, Heteranthera limosa; settings: Heteranthera limosa; for pest or weed control at 62 g/ha: 62 g ai/ha; for pest or weed control at 125 g/ha: 125 g ai/ha; for pest or weed control at 250 g/ha: 250 g ai/ha, scale of 0 to 100, 0 is no effect, 100 is complete control; for pest or weed control at 500 g/ha: 500 g ai/ha, visual rating after 12 to 14 days, read-out: Plant response rating, Ducksalad
barnyardgrass = test: Test C flooded paddy test; type: in vivo, Echinochloa crus-galli; settings: Echinochloa crus-galli; for pest or weed control at 62 g/ha: 62 g ai/ha; for pest or weed control at 62 g/ha / pest or weed control at 125 g/ha / pest or weed control at 500 g/ha: scale 0 to 100 (0 no effect, 100 complete control); for pest or weed control at 62 g/ha / pest or weed control at 125 g/ha / pest or weed control at 250 g/ha: read-out: Barnyardgrass plant response rating; for pest or weed control at 125 g/ha: 125 g ai/ha; for pest or weed control at 250 g/ha: 250 g ai/ha, scale of 0 to 100, 0 is no effect, 100 is complete control; for pest or weed control at 500 g/ha: 500 g ai/ha, visual rating after 12 to 14 days, read-out: Plant response rating, Barnyardgrass
Outline: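 Scoring by eye, 12–14 days post-treatment, greenhouse-held plants vs. controls; 0 no effect, 100 complete control. Sprayed at 1–4 leaves (2–18 cm); paddy barnyardgrass at 2 leaves, flooded.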

[4] = post-emergence, Postemergence, 0 to 100 scale, 0 no effect, 100 complete control, read-out: Morningglory plant response rating
[5] = post-emergence, Postemergence, 0 to 100 scale, 0 no effect, 100 complete control, read-out: Plant response rating, Morningglory
[6] = pre-emergence, Preemergence, visual rating, 0 to 100 scale (0 no effect, 100 complete control), read-out: Morningglory plant response rating
[7] = pre-emergence, preemergence, visual injury, 0 to 100 scale (0 no effect, 100 complete control), read-out: Morningglory plant response rating
[8] = post-emergence, Postemergence, 0 to 100 scale, 0 no effect, 100 complete control, read-out: Velvetleaf plant response rating
[9] = post-emergence, Postemergence, 0 to 100 scale, 0 no effect, 100 complete control, read-out: Plant response rating, Velvetleaf
[10] = pre-emergence, Preemergence, visual rating, 0 to 100 scale (0 no effect, 100 complete control), read-out: Velvetleaf plant response rating
[11] = pre-emergence, preemergence, visual injury, 0 to 100 scale (0 no effect, 100 complete control), read-out: Velvetleaf plant response rating
[12] = scale 0 to 100 (0 no effect, 100 complete control), read-out: Ducksalad plant response rating
[13] = read-out: Ducksalad plant response rating
[14] = scale 0 to 100 (0 no effect, 100 complete control)

## CCc1nn(C(C)(C)C)cc1C(=O)Nc1cc(C(=O)N(C)C)ccc1F [Compound 222, N-[5-[(dimethylamino)carbonyl]-2-fluorophenyl]-1-(1,1-dimethylethyl)-3-ethyl-1H-pyrazole-4-carboxamide]
morningglory; [4]
  pest or weed control at 500 g/ha: 80%
morningglory; [5]
  pest or weed control at 2000 g/ha: 95%
morningglory; [6]
  pest or weed control at 2000 g/ha: 100%
morningglory; [7]
  pest or weed control at 500 g/ha: 75%
Velvetleaf [1]; [8]
  pest or weed control at 500 g/ha: 80%
Velvetleaf [1]; [9]
  pest or weed control at 2000 g/ha: 100%
Velvetleaf [1]; [10]
  pest or weed control at 2000 g/ha: 100%
Velvetleaf [1]; [11]
  pest or weed control at 500 g/ha: 95%
cocklebur
  pest or weed control at 62 g/ha: 0%
  pest or weed control at 125 g/ha: 20%
  pest or weed control at 250 g/ha: 70%
  pest or weed control at 500 g/ha: 100%
goosegrass
  pest or weed control at 62 g/ha: 80%
  pest or weed control at 125 g/ha: 100%
  pest or weed control at 250 g/ha: 100%
  pest or weed control at 500 g/ha: 100%
lambsquarters
  pest or weed control at 62 g/ha: 100%
  pest or weed control at 125 g/ha: 100%
  pest or weed control at 250 g/ha: 100%
  pest or weed control at 500 g/ha: 100%
Yellow nutsedge
  pest or weed control at 62 g/ha: 0%
  pest or weed control at 125 g/ha: 0%
  pest or weed control at 250 g/ha: 20%
  pest or weed control at 500 g/ha: 60%
soybean
  plant injury at 62 g/ha: 40%
  plant injury at 250 g/ha: 100%
  plant injury at 500 g/ha: 100%
[2]
  pest or weed control at 62 g/ha: 0%
  pest or weed control at 250 g/ha: 30%
  pest or weed control at 500 g/ha: 30%
Velvetleaf [3]
  pest or weed control at 62 g/ha: 50%
  pest or weed control at 250 g/ha: 100%
  pest or weed control at 500 g/ha: 100%
ducksalad; [12]
  pest or weed control at 62 g/ha: 70%
  pest or weed control at 125 g/ha: 75%
ducksalad; [13]
  pest or weed control at 250 g/ha: 85%
ducksalad; [14]
  pest or weed control at 500 g/ha: 95%
barnyardgrass
  pest or weed control at 62 g/ha: 15%
  pest or weed control at 125 g/ha: 75%
  pest or weed control at 250 g/ha: 90%
  pest or weed control at 500 g/ha: 95%

## CCN1N=C(C(C)(C)C)CC1C(=O)Nc1cc(C(=O)N(C)C)ccc1F (stereo not shown) [Compound 268, N-[5-[(dimethylamino)carbonyl]-2-fluorophenyl]-3-(1,1-dimethylethyl)-1-ethyl-4,5-dihydro-1H-pyrazole-5-carboxamide]
morningglory; [4]
  pest or weed control at 500 g/ha: 20%
morningglory; [5]
  pest or weed control at 2000 g/ha: 40%
morningglory; [6]
  pest or weed control at 2000 g/ha: 25%
morningglory; [7]
  pest or weed control at 500 g/ha: 5%
Velvetleaf [1]; [8]
  pest or weed control at 500 g/ha: 45%
Velvetleaf [1]; [9]
  pest or weed control at 2000 g/ha: 45%
Velvetleaf [1]; [10]
  pest or weed control at 2000 g/ha: 100%
Velvetleaf [1]; [11]
  pest or weed control at 500 g/ha: 95%
cocklebur
  pest or weed control at 62 g/ha: 10%
  pest or weed control at 125 g/ha: 60%
  pest or weed control at 250 g/ha: 70%
  pest or weed control at 500 g/ha: 85%
goosegrass
  pest or weed control at 62 g/ha: 85%
  pest or weed control at 125 g/ha: 90%
  pest or weed control at 250 g/ha: 100%
  pest or weed control at 500 g/ha: 100%
lambsquarters
  pest or weed control at 62 g/ha: 100%
  pest or weed control at 125 g/ha: 100%
  pest or weed control at 250 g/ha: 100%
  pest or weed control at 500 g/ha: 100%
Yellow nutsedge
  pest or weed control at 62 g/ha: 30%
  pest or weed control at 125 g/ha: 50%
  pest or weed control at 250 g/ha: 60%
  pest or weed control at 500 g/ha: 70%
soybean
  plant injury at 62 g/ha: 60%
  plant injury at 250 g/ha: 90%
  plant injury at 500 g/ha: 95%
[2]
  pest or weed control at 62 g/ha: 0%
  pest or weed control at 250 g/ha: 60%
  pest or weed control at 500 g/ha: 90%
Velvetleaf [3]
  pest or weed control at 62 g/ha: 60%
  pest or weed control at 250 g/ha: 100%
  pest or weed control at 500 g/ha: 100%
ducksalad; scale 0 to 100, read-out: Ducksalad plant response rating
  pest or weed control at 62 g/ha: 60%
ducksalad; [12]
  pest or weed control at 125 g/ha: 70%
ducksalad; [13]
  pest or weed control at 250 g/ha: 85%
ducksalad; [14]
  pest or weed control at 500 g/ha: 90%
barnyardgrass
  pest or weed control at 62 g/ha: 65%
  pest or weed control at 125 g/ha: 90%
  pest or weed control at 250 g/ha: 95%
  pest or weed control at 500 g/ha: 95%
